A word on the EC50: it is the midpoint of the concentration-response curve. The IC50 is the concentration needed to halve the response being measured. One may read the melting point as the temperature, or range, at which the solid turns liquid.

Consider 14 molecules from article PMC7593906, “Synthesis and HPLC-ECD Study of Cytostatic Condensed O,N-Heterocycles Obtained from 3-Aminoflavanones” (Biomolecules, 2020).

The subject of data set [1] is acute myeloid leukemia cells. Set-up: method as in PMID 31744877. The conditions noted are these: across 30 human cell lines; read-out: EC50, viability of acute myeloid leukemia cells; cited from earlier work.
Data set [2] relates to chemoresistant forms of prostate cancer. Set-up: method as in PMID 23423838. The note with it: cited from earlier work.
The subject of data set [3] is A2780 ovarian carcinoma cell line. Nature of the data set: MTT assay, viability of A2780 cells. The note with it: for IC50: MTT assay, cells treated daily for 3 days; for antiproliferative activity at 50 μM concentration: A2780, 50 μM, monitored at 24 and 72 h (Figure S262). It counts as cell-based, human. How it is done:
(§1) The number of viable cells was indirectly determined by measuring the conversion of the tetrazolium salt MTT (3-{4,5-dimethilthiasol-2-il}-2,5-diphenyltetrasolium bromide, Sigma-Aldrich) to formazan by mitochondrial dehydrogenases. Cells were plated in 96-well multi-titer plates (10,000 cells per well density) in quadruplicates and were cultured for 3 days and treated by the compounds daily. Negative control group was treated with equal amount of vehicle solvent (DMSO) and positive control group was treated with 1 µg/mL doxorubicin. Cells were then incubated with 5 mg/mL MTT for 3 h, precipitated formazan crystals were dissolved in acidic isopropanol (10% 1 M HCl in isopropanol supplemented with 10% Triton X 100), and concentration of formazan was assessed colorimetrical way measuring absorbance at 565 nm.
(§2) Logistic dose-response curves were fitted using the equation y = A2 + (A1-A2)/(1 + (x/x0)^p) where the parameters are: A1: initial value (ymin), A2: final value (ymax), x0: center (EC/IC50), and p is the calculated power. Fittings were carried out and parameters were calculated using Origin 8.6 (OriginLab Corporation, Northampton, MA, USA).
Background: Formazan colour is commonly taken as a measure of viable cells.

The next data set relates to WM35 melanoma cell line. The data set is described as follows: MTT assay, viability of WM35 cells. The conditions noted are these: for IC50: MTT assay, cells treated daily for 3 days; for antiproliferative activity at 50 μM concentration: WM35, 50 μM, monitored at 24 and 72 h (Figure S263); for EC20 (logistic fit) / EC80 (logistic fit): WM35, MTT dose-response fit, treated daily for 3 days, SI figures. The format is cell-based, human. How it is done: as §1, §2

Data set [4] deals with non-cancerous HaCaT human keratinocytes. The data set is described as follows: MTT assay, viability of HaCaT keratinocytes. It counts as cell-based. Set-up: EC20 (logistic fit) / EC80 (logistic fit): unit not given here. The conditions noted are these: for IC50: MTT assay, cells treated daily for 3 days; for EC20 (logistic fit) / EC80 (logistic fit): MTT dose-response fit, treated daily for 3 days, SI figures. How it is done: as §1, §2

The test system of data set [5] is A2780 ovarian carcinoma cells. Nature of the data set: MitoProbe DilC1(5) assay, mitochondrial membrane potential. The format is cell-based, human. The note with it: A2780, 24 hrs incubation. An excerpt: (§3) 2.13. MitoProbe^TM DilC1(5) Assay and SYTOX Green Labeling
(§4) Decrease in mitochondrial membrane potential is an early hallmark of apoptosis and the disruption of the plasma membrane integrity is characteristic for cellular necrosis. These events were investigated simultaneously using MitoProbe^TM DilC1(5) assay kit and SYTOX green (both from Molecular Probes/ThermoiFisher) staining, respectively. DilC1(5) (1,1′,3,3,3′,3′-hexamethylindodicarbo - cyanine iodide) is a fluorescent cyanine dye which penetrates cytoplasm with intact membrane and accumulates primarily in mitochondria depending on the mitochondrial membrane potential. […] SYTOX Green is a nucleic acid stain impermeant to live cells with intact plasma membrane, but it penetrates the compromised membrane of necrotic, dead cells resulting in a bright green fluorescent nuclear staining.
(§5) Cells were plated in 96-well multi-titer plates (10,000 cells per well density) in quadruplicates and were incubated for 24 h with various concentrations of rac-19g. […] Finally, the excess of the dyes was removed, cells were gently washed in PBS, and fluorescence of DilC1(5) and SYTOX Green was measured at 630/680 nm and 490/520 nm (excitation/emission), respectively, using a FlexStation 3 (Molecular Devices) multimodal microplate reader.

For data set [6], the system named is A2780 ovarian carcinoma cells. Nature of the data set: SYTOX Green labeling, plasma membrane integrity. It counts as cell-based. The note with it: A2780, 24 hrs incubation.
From the text: as §3, §4, §5

In data set [7] the test system is A2780 ovarian carcinoma cells. Nature of the data set: CyQUANT cell proliferation assay, total DNA content. The format is cell-based, human. The note with it: A2780, 24 hrs incubation. How it is done: 2.14. CyQUANT® Cell Proliferation Assay
CyQUANT assay assesses the cellular proliferation indirectly by directly determining the DNA content in a cell population using CyQUANT fluorescent dye. […] Therefore, it is suitable to asses DNA synthesis associated with cellular proliferation. Cells were plated in 96-well multi-titer plates (10,000 cells per well density) in quadruplicates and were incubated for 24 h with various concentrations of rac-19g, then assayed for cellular proliferation following the manufacturer’s protocol. Briefly, supernatants were gently removed and the plate was snap frozen and stored at −70 °C. Then plate was thawed, cells were lysed and incubated with CyQUANT dye. The excess of the dye was removed and fluorescence was measured at 490/520 nm (excitation/emission) using a FlexStation 3 (Molecular Devices) multimodal microplate reader.

[8] abbreviates: A2780, MTT dose-response fit, treated daily for 3 days, SI figures.

Consider `CCCCCCCCCCCCCCCC(O)C(CO)NC(=O)CCl` (stereo not shown) [SACLAC], for which, in data set [1], the EC50 was approximately 3 µM. Moreover, in data set [2], the “growth of chemoresistant forms of prostate cancer” value is listed as “inhibit the growth”.
Turning to `COc1cccc2c1C(=O)c1c(O)c3c(c(O)c1C2=O)C[C@@](O)(C(=O)CO)C[C@@H]3O[C@H]1C[C@H](N)[C@H](O)[C@H](C)O1` [Doxorubicin, reference compound], the IC50 came out at 0.07 µM in data set [3] (Homo sapiens, A2780, 72 h); 0.14 µM in the data set with WM35 melanoma cell line (Homo sapiens, WM35, 72 h); 0.03 µM in data set [4] (Homo sapiens, HaCaT, 72 h).
Regarding `COc1ccc(C2Oc3ccccc3-c3sc(C)nc32)cc1` (racemic) [rac-3b, (±)-2-methyl-4-(4-methoxyphenyl)-4H-chromeno[3,4-d][1,3]thiazole], the “antiproliferative activity at 50 μM concentration” value (“antiproliferative activity” for short) (in data set [3]; in the data set with WM35 melanoma cell line) was “much weaker activities” in each case.
For the molecule `CCOC(=O)c1c(C)[nH]c2c1-c1ccccc1OC2c1ccc(OC)c(OC)c1` (racemic) [rac-4c, (±)-ethyl 2-methyl-4-(3,4-dimethoxyphenyl)-3,4-dihydrochromeno[3,4-b]pyrrole-1-carboxylate], the “EC20 (logistic fit)” value in data set [3] (setting [8]) is given as 2,14809 mM; in the data set on WM35 melanoma cell line, 1,55024 µM; in [4] (HaCaT), 0.9397. In addition, the IC50 in data set [3] turned out to be 5.34 ± 0.88 µM; in the data set on WM35 melanoma cell line, 8.21 ± 4.38 µM; in data set [4] it was 1.97 ± 0.29 µM. The entries for the “EC80 (logistic fit)” value (with WM35 melanoma cell line; in data set [4] (HaCaT)) were 43,44318 µM and 4.167, respectively.
Take `CCCCCCCCCCCCCCCC(O)C(CO)NC(=O)CBr` (stereo not shown) [SABRAC]: in data set [1], the EC50 was approximately 3 µM. Moreover, in data set [2], the “growth of chemoresistant forms of prostate cancer” value is “inhibit the growth”.
For `COc1cc(C2Oc3ccccc3-c3sc(C)nc32)cc(OC)c1OC` (racemic) [rac-3e, (±)-2-methyl-4-(3,4,5-trimethoxyphenyl)-4H-chromeno[3,4-d][1,3]thiazole], the melting point fell in the range of 113 to 115 °C. For the same molecule, the “EC20 (logistic fit)” value in [3] (setting [8]) is 1,58958 mM. The same molecule gave an IC50 in data set [3] (Homo sapiens, A2780, 72 h) of 2.74 µM. Further, in data set [3], it took 2.72 ± 0.48 µM to reach half-maximal inhibition (IC50). The molecule also had a concentration for half-maximal inhibition (IC50) in the data set with WM35 melanoma cell line (Homo sapiens, WM35, 72 h) of 2.14 ± 1.85 µM. For the same molecule, in the data set with WM35 melanoma cell line, the “EC20 (logistic fit)” value is recorded as 0,11527 µM and the “EC80 (logistic fit)” value is on record as 39,68998 µM. Moreover, in data set [4] (HaCaT), the “EC20 (logistic fit)” value is listed as 3.395 and the “EC80 (logistic fit)” value is reported as 11.45. The molecule further came in with an IC50 in data set [4] (Homo sapiens, HaCaT, 72 h) of 6.23 ± 1.25 µM.
Turning to `Cc1nc2c(s1)-c1ccccc1OC2c1ccc2ccccc2c1` (racemic) [rac-3g, (±)-2-methyl-4-(naphthalen-2-yl)-4H-chromeno[3,4-d][1,3]thiazole], the melting point fell in the range of 129 to 130 °C. In addition, in data set [3], the “antiproliferative activity” value is reported as “much weaker activities”. In addition, the “antiproliferative activity” value in the data set with WM35 melanoma cell line is on record as “much weaker activities”.
In turn, `CCOC(=O)c1c(C)[nH]c2c1-c1ccccc1OC2c1ccc2ccccc2c1` (racemic) [rac-4g, (±)-ethyl 2-methyl-4-(naphthalen-2-yl)-3,4-dihydrochromeno[3,4-b]pyrrole-1-carboxylate] displayed a melting point of 149 to 151 °C.
Consider `Cc1nc2c(s1)-c1ccccc1OC2c1ccccc1` (racemic) [rac-3a, (±)-2-methyl-4-phenyl-4H-chromeno[3,4-d][1,3]thiazole], for which the “antiproliferative activity” value (in data set [3]; with WM35 melanoma cell line) was “much weaker activities” in each case.
For the molecule `COc1ccc([C@@H]2Oc3ccccc3[C@@H]3OCCN[C@@H]23)cc1.Cl` (racemic) [rac-(4aS*,5R*,10bR*)-2b, (±)-(4aR*,5S*,10bS*)-5-(4-methoxyphenyl)-2,3,4,4a,5,10b-hexahydrochromeno[4,3-b][1,4]oxazine hydrochloride], the “antiproliferative activity” value (in [3]; in the data set on WM35 melanoma cell line) was “the most active” in each case. Also, the entries for the “EC20 (logistic fit)” value (in data set [3] (setting [8]); with WM35 melanoma cell line; in data set [4] (HaCaT)) were 6,72446 mM, 26,114 µM and 7.569, respectively. Further, the IC50 in data set [3] turned out to be 10.4 ± 2.71 µM; in data set [4] it was 17.1 ± 7.95 µM. For the same molecule, the entries for the “EC80 (logistic fit)” value (with WM35 melanoma cell line; in data set [4] (HaCaT)) were 43,39258 µM and 38.76, respectively.
Consider `O=C(CCl)N[C@@H]1[C@@H](O)c2ccccc2O[C@H]1c1ccc2ccccc2c1` (racemic) [rac-19g, (±)-2-chloro-N-[(2R*,3S*,4R*)-4-Hydroxy-2-(naphthalen-2-yl)-3,4-dihydro-2H-chromen-3-yl]acetamide], for which the “EC20 (logistic fit)” value is reported as 0,01488 mM in data set [3] (setting [8]) and 1,26314 µM in the data set on WM35 melanoma cell line. Besides, the EC50 in data set [3] (Homo sapiens, 72 h, A2780, MTT dose-response fit, treated daily for 3 days, SI figures, read-out: EC50 (x0 of logistic fit) (converted)) is 0.151 µM. The IC50 in data set [3] (Homo sapiens, A2780, 72 h) came out at 0.15 ± 0.14 µM; with WM35 melanoma cell line (Homo sapiens, WM35, 72 h), 3.5 ± 1.94 µM; in [4] (Homo sapiens, HaCaT, 72 h) it was 6.06 ± 3.3 µM. Further, in the data set with WM35 melanoma cell line, the “EC80 (logistic fit)” value is 9,68285 µM. Further, the “mitochondrial membrane potential [DilC1(5) staining]” value in data set [5] is given as “decreased the mitochondrial membrane potential”. Moreover, the “integrity of the plasma membrane (SYTOX Green staining)” value in data set [6] is on record as “intact (negative SYTOX Green staining)”. For the same molecule, the “proliferation-associated DNA synthesis (CyQUANT Assay)” value in data set [7] is recorded as “inhibited proliferation-associated DNA synthesis”.
As to `COc1cc(OC)cc([C@@H]2Oc3ccccc3[C@H]3OCCN[C@H]32)c1` (racemic) [rac-(4aS*,5R*,10bS*)-2d, (±)-(4aR*,5S*,10bR*)-5-(3,5-dimethoxyphenyl)-2,3,4,4a,5,10b-hexahydrochromeno[4,3-b][1,4]oxazine], the “antiproliferative activity” value (in [3]; in the data set with WM35 melanoma cell line) was “the most active” throughout. In addition, the “EC20 (logistic fit)” value in [3] (setting [8]) is 10,79361 mM; in the data set on WM35 melanoma cell line it was 14,15843 µM; in [4] (HaCaT) it was 11.28. The figures for the “EC80 (logistic fit)” value (with WM35 melanoma cell line; in data set [4] (HaCaT)) were 53,361 µM and 81.84, respectively. Besides, half-maximal inhibition in data set [4] (IC50) required 30.4 ± 49.8 µM.
As to `CCOC(=O)c1c(C)[nH]c2c1-c1ccccc1OC2c1ccc(OC)cc1` (racemic) [rac-4b, (±)-ethyl 2-methyl-4-(4-methoxyphenyl)-3,4-dihydrochromeno[3,4-b]pyrrole-1-carboxylate], the “EC20 (logistic fit)” value in [3] (setting [8]) is given as 1,99005 mM; with WM35 melanoma cell line, 1,2746 µM; in [4] (HaCaT), 2.492. For the same molecule, the IC50 in data set [3] stood at 4.84 ± 1.38 µM; in the data set with WM35 melanoma cell line, 5.83 ± 1.78 µM; in [4] it was 9.57 ± 8.77 µM. Besides, the “EC80 (logistic fit)” value in the data set with WM35 melanoma cell line is 26,63177 µM; in [4] (HaCaT), 36.73.
Turning to `COc1ccc(C2Oc3ccccc3-c3sc(C)nc32)cc1OC` (racemic) [rac-3c, (±)-2-methyl-4-(3,4-dimethoxyphenyl)-4H-chromeno[3,4-d][1,3]thiazole], the “antiproliferative activity” value (in data set [3]; in the data set on WM35 melanoma cell line) was “much weaker activities” in each case.
